Values joined by “and” are separate entries in the source; they are usually repeats but may differ in a detail not shown here. Identical values can stand only once.
Assays:
Type in all cases: cell-based
[1] = target: GluN1b wt/ GluN2B E236A (Rattus norvegicus, UniProt P35439+Q00960, E236A); assay: TEVC recording in X. laevis oocytes, GluN2B mutant screening
Method: (§1) Single point mutations were incorporated into template DNA (GluN1-1b wt/ pSGEM and GluN2B wt/ pSGEM) by using the QuikChange II XL site-directed mutagenesis kit (Agilent Technologies, Germany). Mutagenesis primers were designed using the QuikChange Primer Design Program (Agilent) and provided by Microsynth (Microsynth AG, Balgach, Switzerland). For mutation of the desired amino acid in the gene, PCR amplification was performed with the respective mutagenesis primers (Eppendorf MasterCycler Gradient, Eppendorf Hamburg, Germany). Mutations were verified by automated DNA sequencing. Constructs were linearized with PacI (GluN1) or NheI (GluN2B). cRNA was prepared byin vitrotranscription using the mMessage mMachine T7 kit (Life Technologies, Darmstadt, Germany).
(§2) The NMDAR was expressed in stage V and VI oocytes originated from X. laevis. Oocytes were provided by Ecocyte Bioscience (Dortmund, Germany), and equimolar amounts of wild-type and mutated GluN1 and GluN2B cRNA were injected (0.8 ng each). The oocytes were incubated in Barth’s solution, containing (mmol l^−1): 88 NaCl, 1 KCl, 0.4 CaCl2, 0.33 Ca(NO3)2, 0.6 MgSO4, 5 TRIS–HCl, 2.4 NaHCO3, supplemented with 80 mg l^−1 theophylline, 63 mg l^−1 benzylpenicillin, 40 mg l^−1 streptomycin, and 100 mg l^−1 gentamycin and maintained at 18 °C until usage. After injection, the oocytes were incubated for 5 days at 18 °C. Subsequently, the activity of the expressed NMDARs in the oocytes was recorded by two-electrode voltage clamp (TEVC).
(§3) The compounds were retrieved as 10 mM stock solutions in DMSO and were subsequently diluted with agonist solution and adjusted to 0.1% DMSO concentration. Inhibition of each compound was measured via TEVC in X. laevis oocytes at room temperature using a Turbo Tec 10CX amplifier (NPI electronic, Tamm, Germany), NI USB 6221 DA/AD Interface (National Instruments, Austin, USA), and GePulse Software (Dr. Michael Pusch, Genova, Italy). Ba^2+-Ringer, consisting of 10 mM HEPES, 90 mM NaCl, 1 mM KCl, and 1.5 mM BaCl2, adjusted to pH 7.4, was used for TEVC measurements. Agonist solution containing 10 µM glycine and 10 µM (S)-glutamate was prepared in Ba^2+-Ringer, and the measurements were performed at a holding potential of − 70 mV, using electrodes with a glass capillary filled with 3 M KCl and a resistance between 0.5 and 1.5 MΩ. The compounds were tested by applying ascending concentrations, ranging from 1 to 30,000 nM, in at least six oocytes. Example traces for all recorded conditions can be found in Supplementary Figs. S2–S9.
(§4) TEVC data were analyzed using Ana (Dr. Michael Pusch, Genova, Italy), and statistics were performed using OriginPro 2020 (OriginLab Corporation, Northampton, USA). The inhibitory effect of each compound is calculated using the following equation: inhibition=1-Ic-Ih/Ia-Ih where Ih describes the current in the absence of agonists; Ia represents the steady-state current in the presence of the agonists; and Ic is defined as the steady-state after binding of agonist and compound. All dose response curves are fitted to the following logistic equation: y=A1-A2/1+x/x0^p+A2 where A1 describes the minimal inhibition of a compound and was set to 0; A2 represents the maximal inhibition of a compound; p is the slope of the curve; x0 is defined as the concentration at half-maximal inhibition; and x is the tested concentration. Data were statistically analyzed by one-way ANOVA and Tukey post-hoc mean comparison test in OriginPro 2020 (OriginLab Corporation, Northampton, USA). p values are indicated by * for p < 0.05, ** for p < 0.01, and *** for p < 0.001.

[2] = target: GluN1b wt/ GluN2B F194A (Rattus norvegicus, UniProt P35439+Q00960, F194A); assay: as above
Method: as §1, §2, §3, §4

[3] = target: GluN1b wt/ GluN2B F114A (Rattus norvegicus, UniProt P35439+Q00960, F114A); assay: as above; details: fitted curve
Method: as §1, §2, §3, §4

[4] = target: GluN1a wt/ GluN2B F194A (Rattus norvegicus, UniProt P35439+Q00960, F194A); assay: as above; details: fitted curve
Method: as §1, §2, §3, §4

[5] = target: GluN1b wt/ GluN2B Q110A (Rattus norvegicus, UniProt P35439+Q00960, Q110A); assay: as above
Method: as §1, §2, §3, §4

[6] = tested on: GluN1b wt/ GluN2B wt; assay: TEVC recording of NMDAR currents in X. laevis oocytes, inhibition by compound; details: X. laevis oocytes; higher for GluN1-1b
Method: as §2, §3, §4

[7] = target: GluN1a wt/ GluN2B wt (Rattus norvegicus, UniProt P35439+Q00960); assay: as above
Method: as §2, §3, §4

[8] = target: GluN1b wt/ GluN2B wt (Rattus norvegicus, UniProt P35439+Q00960); assay: as above
Method: as §2, §3, §4

[9] = agonists 10 µM glycine + 10 µM (S)-glutamate, fitted curve
[10] = agonists 10 µM glycine + 10 µM (S)-glutamate
[11] = oocytes, 10 µM glycine + 10 µM (S)-glutamate, -70 mV, fitted curve

Chain of GluN1b wt/ GluN2B Q110A (Q00960 27-1482 Q110A, other chains not shown): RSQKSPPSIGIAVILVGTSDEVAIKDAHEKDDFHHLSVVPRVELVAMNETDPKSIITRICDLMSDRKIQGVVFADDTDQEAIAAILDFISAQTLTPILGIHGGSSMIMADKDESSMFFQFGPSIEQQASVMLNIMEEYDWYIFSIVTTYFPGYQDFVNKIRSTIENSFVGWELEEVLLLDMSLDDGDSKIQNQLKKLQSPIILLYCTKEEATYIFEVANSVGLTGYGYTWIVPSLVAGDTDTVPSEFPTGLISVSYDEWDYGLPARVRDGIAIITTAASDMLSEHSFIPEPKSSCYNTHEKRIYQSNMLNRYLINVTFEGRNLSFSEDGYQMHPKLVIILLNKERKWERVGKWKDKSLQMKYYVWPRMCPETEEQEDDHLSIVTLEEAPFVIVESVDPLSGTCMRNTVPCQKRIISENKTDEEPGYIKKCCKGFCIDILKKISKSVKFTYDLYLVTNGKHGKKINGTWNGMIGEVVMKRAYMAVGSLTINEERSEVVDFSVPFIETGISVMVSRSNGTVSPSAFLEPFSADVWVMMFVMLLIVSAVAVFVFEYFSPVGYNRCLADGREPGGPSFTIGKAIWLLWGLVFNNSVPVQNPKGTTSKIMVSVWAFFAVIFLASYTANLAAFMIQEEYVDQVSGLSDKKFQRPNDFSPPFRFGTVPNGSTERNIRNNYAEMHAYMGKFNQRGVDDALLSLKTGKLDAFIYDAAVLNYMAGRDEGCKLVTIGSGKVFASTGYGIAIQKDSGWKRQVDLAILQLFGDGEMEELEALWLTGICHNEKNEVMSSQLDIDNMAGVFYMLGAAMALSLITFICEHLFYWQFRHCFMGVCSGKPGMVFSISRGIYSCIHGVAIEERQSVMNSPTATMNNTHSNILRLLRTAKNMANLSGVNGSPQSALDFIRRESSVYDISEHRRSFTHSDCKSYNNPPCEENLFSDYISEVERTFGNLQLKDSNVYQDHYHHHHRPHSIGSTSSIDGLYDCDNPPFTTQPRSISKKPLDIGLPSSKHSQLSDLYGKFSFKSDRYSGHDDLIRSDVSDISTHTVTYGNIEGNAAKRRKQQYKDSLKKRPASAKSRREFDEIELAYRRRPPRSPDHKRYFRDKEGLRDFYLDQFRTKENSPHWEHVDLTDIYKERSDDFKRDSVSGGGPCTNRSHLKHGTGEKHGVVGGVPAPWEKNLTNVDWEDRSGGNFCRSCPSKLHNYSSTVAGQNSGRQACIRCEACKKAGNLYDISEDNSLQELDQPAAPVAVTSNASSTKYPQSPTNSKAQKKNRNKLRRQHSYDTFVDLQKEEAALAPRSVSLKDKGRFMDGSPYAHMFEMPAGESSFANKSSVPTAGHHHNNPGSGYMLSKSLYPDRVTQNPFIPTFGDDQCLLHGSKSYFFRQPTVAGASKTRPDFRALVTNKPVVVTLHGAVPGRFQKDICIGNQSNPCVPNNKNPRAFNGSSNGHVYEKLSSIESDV
Chain of GluN1b wt/ GluN2B F194A (Q00960 27-1482 F194A, other chains not shown): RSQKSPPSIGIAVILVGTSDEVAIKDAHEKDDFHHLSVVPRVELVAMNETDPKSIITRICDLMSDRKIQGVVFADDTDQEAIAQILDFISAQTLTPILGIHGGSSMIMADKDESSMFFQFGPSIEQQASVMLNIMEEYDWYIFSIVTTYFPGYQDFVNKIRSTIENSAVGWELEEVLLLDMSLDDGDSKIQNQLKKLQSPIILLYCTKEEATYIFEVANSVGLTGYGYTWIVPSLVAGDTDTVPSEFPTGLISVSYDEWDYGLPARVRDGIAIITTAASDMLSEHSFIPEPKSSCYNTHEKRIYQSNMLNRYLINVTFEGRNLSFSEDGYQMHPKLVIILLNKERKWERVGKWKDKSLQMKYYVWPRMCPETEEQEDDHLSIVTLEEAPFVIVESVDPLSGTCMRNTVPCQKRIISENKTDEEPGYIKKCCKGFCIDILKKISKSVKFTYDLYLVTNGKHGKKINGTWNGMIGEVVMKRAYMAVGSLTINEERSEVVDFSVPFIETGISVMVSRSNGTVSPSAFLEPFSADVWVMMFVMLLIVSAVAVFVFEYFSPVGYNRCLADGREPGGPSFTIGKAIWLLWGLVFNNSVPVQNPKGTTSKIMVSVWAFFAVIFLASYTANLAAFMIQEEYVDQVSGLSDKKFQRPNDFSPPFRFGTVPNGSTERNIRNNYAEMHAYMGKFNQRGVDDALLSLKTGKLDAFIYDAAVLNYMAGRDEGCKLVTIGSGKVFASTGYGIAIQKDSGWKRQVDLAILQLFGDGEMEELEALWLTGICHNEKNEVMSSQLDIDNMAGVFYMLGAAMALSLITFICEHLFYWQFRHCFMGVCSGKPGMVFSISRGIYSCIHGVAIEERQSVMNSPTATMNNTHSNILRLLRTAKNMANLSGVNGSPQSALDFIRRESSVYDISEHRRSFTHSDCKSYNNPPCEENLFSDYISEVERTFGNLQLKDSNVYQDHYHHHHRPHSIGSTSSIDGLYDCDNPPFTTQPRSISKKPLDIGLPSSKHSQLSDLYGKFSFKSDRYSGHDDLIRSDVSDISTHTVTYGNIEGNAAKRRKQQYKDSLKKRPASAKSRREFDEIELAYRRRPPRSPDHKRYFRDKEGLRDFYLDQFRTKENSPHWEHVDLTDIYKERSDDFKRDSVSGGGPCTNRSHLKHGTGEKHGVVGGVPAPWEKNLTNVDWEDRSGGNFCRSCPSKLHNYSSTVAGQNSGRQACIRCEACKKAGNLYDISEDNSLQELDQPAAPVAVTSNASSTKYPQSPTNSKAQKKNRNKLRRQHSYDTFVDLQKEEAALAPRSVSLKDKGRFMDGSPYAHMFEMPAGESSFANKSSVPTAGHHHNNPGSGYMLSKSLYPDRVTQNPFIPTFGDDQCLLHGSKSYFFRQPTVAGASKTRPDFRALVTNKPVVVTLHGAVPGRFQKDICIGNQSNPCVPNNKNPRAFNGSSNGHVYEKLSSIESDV
Chain of GluN1a wt/ GluN2B wt (Q00960 27-1482, other chains not shown): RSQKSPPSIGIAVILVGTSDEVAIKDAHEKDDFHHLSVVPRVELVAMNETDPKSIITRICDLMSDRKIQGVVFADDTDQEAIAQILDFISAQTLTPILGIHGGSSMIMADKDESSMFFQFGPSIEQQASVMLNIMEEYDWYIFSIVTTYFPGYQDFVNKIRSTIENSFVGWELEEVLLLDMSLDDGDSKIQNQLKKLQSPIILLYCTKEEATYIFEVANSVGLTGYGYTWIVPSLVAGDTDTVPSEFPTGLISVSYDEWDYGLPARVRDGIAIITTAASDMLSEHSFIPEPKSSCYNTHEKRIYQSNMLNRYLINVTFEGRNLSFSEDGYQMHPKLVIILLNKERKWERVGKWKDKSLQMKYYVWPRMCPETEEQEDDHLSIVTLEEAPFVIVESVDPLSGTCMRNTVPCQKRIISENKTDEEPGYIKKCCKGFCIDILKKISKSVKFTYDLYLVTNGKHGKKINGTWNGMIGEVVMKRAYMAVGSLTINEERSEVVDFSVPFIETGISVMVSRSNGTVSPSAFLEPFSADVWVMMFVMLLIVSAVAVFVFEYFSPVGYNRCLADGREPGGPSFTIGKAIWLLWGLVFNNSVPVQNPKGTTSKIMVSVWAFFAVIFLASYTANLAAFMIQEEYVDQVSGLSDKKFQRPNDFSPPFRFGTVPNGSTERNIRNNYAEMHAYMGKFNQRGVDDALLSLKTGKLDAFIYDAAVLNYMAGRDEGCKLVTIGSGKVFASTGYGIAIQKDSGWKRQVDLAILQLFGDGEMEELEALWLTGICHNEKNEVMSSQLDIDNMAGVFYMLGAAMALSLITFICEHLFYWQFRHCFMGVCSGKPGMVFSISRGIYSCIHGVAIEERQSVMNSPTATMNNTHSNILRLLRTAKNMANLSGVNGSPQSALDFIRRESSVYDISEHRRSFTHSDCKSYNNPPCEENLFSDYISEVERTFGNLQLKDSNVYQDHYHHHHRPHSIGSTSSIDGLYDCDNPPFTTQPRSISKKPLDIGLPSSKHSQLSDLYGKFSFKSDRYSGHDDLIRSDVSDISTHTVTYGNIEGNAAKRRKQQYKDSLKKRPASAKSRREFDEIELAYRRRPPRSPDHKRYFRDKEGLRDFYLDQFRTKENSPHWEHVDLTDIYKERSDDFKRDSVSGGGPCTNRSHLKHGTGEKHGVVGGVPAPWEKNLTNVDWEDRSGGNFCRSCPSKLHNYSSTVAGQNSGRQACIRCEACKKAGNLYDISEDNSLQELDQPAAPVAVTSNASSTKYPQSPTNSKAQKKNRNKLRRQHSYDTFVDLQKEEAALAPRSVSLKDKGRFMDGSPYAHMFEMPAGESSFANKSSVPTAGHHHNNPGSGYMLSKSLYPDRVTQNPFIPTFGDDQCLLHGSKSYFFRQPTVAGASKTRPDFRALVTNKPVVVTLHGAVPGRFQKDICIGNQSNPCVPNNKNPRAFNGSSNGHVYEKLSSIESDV

Oc1ccc2c(c1)CCN(CCCCc1ccccc1F)C[C@@H]2O [(R)-OF-NB1]
inhibition at 1 µM ([1]; GluN1-1b/E236A, compound concentration 1 μM, single oocytes): 39.5% | inhibition at 10 µM ([1]; GluN1-1b/E236A, compound concentration 10 μM, single oocytes): 51.9% | inhibition at 30 µM ([1]; GluN1-1b/E236A, compound concentration 30 μM, single oocytes): 61.6% | IC50 [1, 9]: 3150 nM | Hill coefficient ([1]; fitted curve): 0.6 | inhibition at 1 µM ([2]; GluN1-1b GluN2B F194A, compound concentration 1 μM, single oocytes): 39.3% | inhibition at 30 µM ([2]; GluN1-1b GluN2B F194A, compound concentration 30 μM, single oocytes): 51.8% | IC50 [2, 9]: 3840 nM | Hill coefficient ([2]; fitted curve): 0.5 | IC50 [3, 10]: 14200 nM | Hill coefficient [3]: 0.9 | IC50 [4, 10]: 16600 nM | Hill coefficient [4]: 0.4 | inhibition at 10 µM ([5]; GluN1-1b/Q110A, compound concentration 10 μM, single oocytes): 78.4% | inhibition at 30 µM ([5]; GluN1-1b/Q110A, compound concentration 30 μM, single oocytes): 84.2% | IC50 [5, 9]: 519 nM | Hill coefficient ([5]; fitted curve): 1.2 | IC50 of splice variant containing exon 5 (GluN1-1b) relative to IC50 of GluN1-1a [6]: sevenfold | inhibition at 10 µM ([7]; GluN1-1a/ GluN2B, compound concentration 10 μM, single oocytes): 88.1% | inhibition at 30 µM ([7]; GluN1-1a/ GluN2B, compound concentration 30 μM, single oocytes): 91.8% | antagonist concentration at which oocytes were already inhibited ([7]; TEVC example traces): 0.001 µM | Hill coefficient ([7]; fitted curve): 0.9 | IC50 [7, 11]: 97 nM | inhibition (%) ([8]; GluN1-1b, compound 10 nM, single oocyte, 0.01 µM): -3.681% and 0.325% and 2.192% and 0.884% and -0.428% and 3.985% and 0.078% and 0.089% | inhibition at 1 µM ([8]; GluN1-1b, compound 1000 nM, single oocyte): 72.1% | inhibition at 10 µM ([8]; GluN1-1b, compound 10000 nM, single oocyte): 82.7% | inhibition at 30 µM ([8]; GluN1-1b, compound 30000 nM, single oocyte): 84.9% | inhibition (%) ([8]; GluN1-1b/ GluN2B, compound concentration 0.001 μM, single oocytes, 0.001 µM): 0.0934% and -0.03337% and 1.1426% and -0.02965% and -0.02382% and 0.3791% and 0.2758% | inhibition (%) ([8]; GluN1-1b/ GluN2B, compound concentration 0.01 μM, single oocytes, 0.01 µM): -0.2599% and -0.1168% and -0.1502% and 0.03902% and 1.645% and -0.1483% and 0.439% and 0.2911% | inhibition at 30 µM ([8]; GluN1-1b/ GluN2B, compound concentration 30 μM, single oocytes): 86.1% | antagonist concentration at which oocytes were inhibited ([8]; TEVC example traces): ~ 1 µM | A2 (level of maximal inhibition) ([8]; fitted curve): 84.8% | Hill coefficient ([8]; fitted curve): 6.2 | IC50 [8, 11]: 675 nM
